# In patent US20110274763A1, “Slow releasing microcapsules and microspheres containing an active substance” (priority 2009, published 2011):
# Read-outs that look alike come from different tables or passages of the source.
# What was measured:
# [1] = IPBC release from painted surfaces immersed in water (14C, liquid scintillation); assay type: physicochemical; conditions: water-based paint; 0.1% IPBC in wet paint; microspheres with 10% and 25% loading; plates in 250 ml water
# Method: Three different 10 g paint samples were prepared. […] A specific fraction of the IPBC was ^14C-labelled material. Wet paint contained in total 0.1% IPBC. Stirring the paint assured homogeneous dispersion of the added substance. […] The containers were placed on a mechanical shaker. […] The release of free IPBC is about three times faster than that from microspheres.
# [2] = plates in 2000 ml water, 0.4% medetomidine in wet paint
# Method: Four different 30 g paint samples were prepared. Two of the samples were based on biocide-free and water-based standard white exterior wall paint, while the two other samples were based on biocide-free and organic solvent-based standard white exterior wall paint. Medetomidine was added to each sample, either in free form or the form of microspheres. ^14C-labelled material was 2.3% of all medetomidine. Wet paint contained in total 0.4% medetomidine. Stirring the paint with an electrical mixer assured homogeneous dispersion of the added substance. For the release studies, approximately 1 g (dry state) of the paint systems was applied on poly(propylene) plates using a paint applicator. After drying and weighing, each plate was vertically positioned in a closed container containing 2000 ml water that covered the plate. The containers were placed on a mechanical shaker. At various times 1000 μl water was pipetted out from each system and transferred to 20 ml tubes.
# [3] = tested on: barnacles and other fouling organisms; conditions: 0.1% by weight medetomidine or equivalent in marine paint; six and ten months of submersion in the sea, Swedish west coast
# Method: PMMA test panels 1 dm^2 was painted by brush with three different biocide free commercially available marine paints. 3 ml of paint were used for each layer and there were two layers applied on each panel. These panels were used as references. To the same paints in different cans were added 0.1% by weight of medetomidine or an equivalent amount of medetomidine encapsulated in microspheres. The paint mixtures were applied to the same kind of test panels as the reference paints. All panels were made in triplicates and mounted randomly on a frame for submersion into the sea on the Swedish west coast (Tjärnö Marine Biological Laboratory). After six months and ten months (June 2009 to December 2009 and in April 2010) of submersion they were inspected.
release of free medetomidine compared with that from microspheres ([2]; solvent-based paint),release of free medetomidine compared with that from microspheres ([2]; water-based paint),SMILES,release of free IPBC compared with that from microspheres [1],barnacle / tubeworm attachment on painted panels [3]
,,"CCCCNC(=O)OCC#CI [free IPBC, 3-iodo-2-propynyl butylcarbamate]",about three,
ten,about two,"Cc1cccc(C(C)c2cnc[nH]2)c1C (stereo not shown) [medetomidine, 4-[1-(2,3-dimethylphenyl)ethyl]-3H-imidazole]",,no barnacles or tubeworms attached
